Peptide text beside a SMILES is read from it.
Assays:
cells [1] = test: Cell attachment to peptide-coupled Sepharose (agarose) beads; assay type: cell-based; details: coupled to cyanogen bromide-activated agarose beads (Sepharose), sterilized by autoclaving
Protocol: The four synthetic peptides as well as the 11.5-kDal fragment and a 200-kDal fragment of fibronectin were coupled to cyanogen bromide-activated Sepharose-6MB beads (Pharmacia) according to the manufacturer's instructions. The peptides were first reduced as described above and used at 8 mg of peptide per ml of Sepharose. Albumin-coated beads and beads derivatized with ethanolamine were used as controls.
The cell attachment assays were performed as described (Ruoslahti, E. et al (1981) Methods Enzymology82,803-831) with human fibroblasts or normal rat kidney (NRK) cells. Briefly, 100 I of a single- cell suspension containing […] was placed in a flat-bottom microtiter well that had been coated with one of the peptides or with fibronectin. After 1 h at 37°C, unattached cells were washed away and attached cells were fixed and stained for counting. In some experiments soluble peptide was added to the medium to determine if its presence during the attachment would have an inhibitory effect. Cell attachment to the agarose beads was performed on a layer of beads in the bottom of a round-bottom microtiter well exactly as described above.

cells [2] = test: Cell-attachment activity of the synthetic fragment compared with the entire polypeptide; assay type: cell-based

## CC[C@H](C)[C@H](NC(=O)[C@H](CO)NC(=O)[C@@H](NC(=O)[C@@H]1CCCN1C(=O)[C@H](CCCCN)NC(=O)[C@H](CO)NC(=O)[C@H](CO)NC(=O)[C@H](C)NC(=O)[C@@H]1CCCN1C(=O)[C@H](CO)NC(=O)[C@H](CC(=O)O)NC(=O)CNC(=O)[C@H](CCCNC(=N)N)NC(=O)CNC(=O)[C@@H](NC(=O)[C@@H](NC(=O)[C@H](C)NC(=O)[C@@H](N)Cc1ccc(O)cc1)C(C)C)[C@@H](C)O)[C@@H](C)CC)C(=O)N[C@@H](CC(N)=O)C(=O)N[C@@H](Cc1ccc(O)cc1)C(=O)N[C@@H](CCCNC(=N)N)C(=O)N[C@H](C(=O)N[C@@H](CCC(=O)O)C(=O)N[C@H](C(=O)N[C@@H](CC(=O)O)C(=O)N[C@@H](CCCCN)C(=O)N1CCC[C@H]1C(=O)N[C@@H](CO)C(=O)N[C@@H](CCC(N)=O)C(=O)N[C@@H](CCSC)C(=O)O)[C@@H](C)CC)[C@@H](C)O [30-residue fragment, H-Tyr-Ala-Val-Thr-Gly-Arg-Gly-Asp-Ser-Pro-Ala-Ser-Ser-Lys-Pro-IIe-Ser-IIe-Asn-Tyr-Arg-Thr-Glu-IIe-Asp-Lys-Pro-Ser-Gln-Met-OH] (H-YAVTGRGDSPASSKPISINYRTEIDKPSQM-OH)
Cells [1]
  attachment of cells to beads: induces attachment of cells to the beads
Cells [2]
  cell-attachment activity compared with the entire sequence: the same activity as the entire sequence

Reference: EP0114887B1, “POLYPEPTIDE” (LA JOLLA CANCER RESEARCH FOUNDATION, priority 1982, dated 1990)
